Laboratory results from patent US20260176270A1 (Exelixis, Inc., priority 2022, published 2026).
Like-named read-outs stand apart in the source and are kept apart here.

Key:
PKMYT1 = target: T1, PKMYT1 (Homo sapiens, UniProt Q99640); assay: ADP-Glo PKMYT1 ATP-depletion assay; conditions: 50 nM PKMYT1, 13.3 nM CDK1, read-out: Biochemical IC50
T1 construct: PKMYT1 (93 kD, full length, N-terminal GST tag from Signal Chem); GST (N); purchased Signal Chem
T1 sequence (Q99640 1-499): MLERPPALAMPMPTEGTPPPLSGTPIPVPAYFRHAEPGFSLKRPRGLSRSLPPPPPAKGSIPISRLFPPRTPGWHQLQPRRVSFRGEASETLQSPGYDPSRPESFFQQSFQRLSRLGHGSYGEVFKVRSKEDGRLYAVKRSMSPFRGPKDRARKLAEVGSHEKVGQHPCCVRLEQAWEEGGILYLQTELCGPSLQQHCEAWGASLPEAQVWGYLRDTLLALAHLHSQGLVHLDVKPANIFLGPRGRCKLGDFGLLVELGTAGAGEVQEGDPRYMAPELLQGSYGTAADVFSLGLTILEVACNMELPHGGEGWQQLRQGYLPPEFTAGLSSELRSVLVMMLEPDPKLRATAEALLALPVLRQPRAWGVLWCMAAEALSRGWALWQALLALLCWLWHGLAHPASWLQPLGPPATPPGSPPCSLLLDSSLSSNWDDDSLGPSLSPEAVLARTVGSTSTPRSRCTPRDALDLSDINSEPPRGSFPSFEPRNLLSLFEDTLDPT
Procedure, shortened: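 Full-length N-terminal GST-tagged PKMYT1 (50 nM) with GST-CDK1 (13.3 nM) as substrate and 88 µM ATP, in Hepes buffer with MgCl2, MnCl2, DTT and BSA; DMSO <1%. Incubated 120 min at RT. ADP formed was quantified by ADP-Glo luminescence and used to derive biochemical IC50.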

[1] = test system: phosphorylation of CDK1 at Thr14 in HCC1806 cells; assay: Cell lysate AlphaLISA assay measuring inhibition of phosphorylation of CDK1 Thr14; format: cell-based; conditions: read-out: Cellular IC50
Procedure, shortened: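 HCC1806 cells seeded overnight, then treated 4 h at 37 °C, 5% CO2 with compounds in DMSO; washed and lysed, lysates frozen overnight at −80 °C. CDK1 Thr14 phosphorylation read by AlphaLISA SureFire Ultra; data normalized to DMSO (0% inhibition) and 3 μM reference compound to give IC50.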

## Cc1nc2cc(C(N)=O)c(N)c(-c3cccc(O)c3C)c2nc1C [Compound 91, 7-Amino-8-(3-hydroxy-2-methylphenyl)-2,3-dimethylquinoxaline-6-carboxamide]
PKMYT1
  IC50: 50 to 500 nM
[1]; Homo sapiens, HCC1806, 4 h
  IC50: 50 to 500 nM

## Cc1c(O)cccc1-c1c(N)c(C(N)=O)nc2cc(C(F)(F)F)cnc12 (atropisomer, axis not shown) [Compound 166]
PKMYT1
  IC50: < 50 nM
[1]; 4 hours
  IC50: 50 to 500 nM

## NC(=O)c1nc2cccnc2c(-c2cnn3ccccc23)c1N [Compound 323]
PKMYT1
  IC50: 1000 to 5000 nM
[1]; Homo sapiens, HCC1806, 4 h
  IC50: ≥ 5000 nM

## Cc1ccc(O)c(C)c1-c1c(N)c(C(N)=O)nc2c(C)cccc12 [Compound 27, 3-Amino-4-(3-hydroxy-2,6-dimethylphenyl)-8-methylquinoline-2-carboxamide]
PKMYT1
  IC50: 500 to 1000 nM
[1]; Homo sapiens, HCC1806, 4 h
  IC50: 1000 to 5000 nM

## Cc1ncncc1-c1c(N)c(C(N)=O)nc2cccnc12 [Compound 232]
PKMYT1
  IC50: 1000 to 5000 nM
[1]; Homo sapiens, HCC1806, 4 h
  IC50: ≥ 5000 nM

## CC1=C(c2c(N)c(C(N)=O)nc3cccnc23)CCC[C@H]1O [Compound 309]
PKMYT1
  IC50: ≥ 5000 nM
[1]; Homo sapiens, HCC1806, 4 h
  IC50: ≥ 5000 nM

## NC(=O)c1nc2cccnc2c(-c2cccc3[nH]nc(F)c23)c1N (atropisomer, axis not shown) [Compound 304]
PKMYT1
  IC50: ≥ 5000 nM
[1]; 4 hours
  IC50: ≥ 5000 nM

## Cc1ccc(O)c(C)c1-c1c(N)c(C(N)=O)nc2nccnc12 [Compound 126, 7-amino-8-(3-hydroxy-2,6-dimethylphenyl)pyrido[2,3-b]pyrazine-6-carboxamide]
PKMYT1
  IC50: < 50 nM
[1]; Homo sapiens, HCC1806, 4 h
  IC50: 50 to 500 nM

## COc1ccc2nc(C(N)=O)c(N)c(-c3cc(O)ncc3C)c2n1 [Compound 315]
PKMYT1
  IC50: ≥ 5000 nM
[1]; Homo sapiens, HCC1806, 4 h
  IC50: ≥ 5000 nM

## NC(=O)c1cc2nccnc2c(-c2cccc(O)c2Cl)c1N [Compound 97, 7-Amino-8-(2-chloro-3-hydroxyphenyl)quinoxaline-6-carboxamide]
PKMYT1
  IC50: < 50 nM
[1]; Homo sapiens, HCC1806, 4 h
  IC50: 50 to 500 nM

## Cc1cnc2c(-c3cccc(O)c3C)c(N)c(C(N)=O)cc2n1 (atropisomer, axis not shown) [Compound 209]
PKMYT1
  IC50: < 50 nM
[1]; 4 hours
  IC50: 50 to 500 nM

## NC(=O)c1nc2cccnc2c(-c2cccc3[nH]nc(F)c23)c1N (atropisomer, axis not shown) [Compound 305]
PKMYT1
  IC50: 50 to 500 nM
[1]; 4 hours
  IC50: 1000 to 5000 nM

## Cc1ccc2[nH]ncc2c1-c1c(N)c(C(N)=O)cc2cccnc12 [Compound 143]
PKMYT1
  IC50: 50 to 500 nM
[1]; Homo sapiens, HCC1806, 4 h
  IC50: 1000 to 5000 nM

## Cc1ccc(-c2c(N)c(C(N)=O)nc3cccnc23)c(C)c1O (atropisomer, axis not shown) [Compound 287]
PKMYT1
  IC50: ≥ 5000 nM
[1]; 4 hours
  IC50: ≥ 5000 nM

## COc1nc2cc(C(N)=O)c(N)c(-c3cccc(O)c3C)c2nc1C [Compound 172]
PKMYT1
  IC50: 50 to 500 nM
[1]; 4 hours
  IC50: 50 to 500 nM

## NC(=O)c1cc2nccnc2c(-c2cc(O)ccc2Cl)c1N [Compound 121, 7-Amino-8-(2-chloro-5-hydroxyphenyl)quinoxaline-6-carboxamide]
PKMYT1
  IC50: 50 to 500 nM
[1]; Homo sapiens, HCC1806, 4 h
  IC50: 1000 to 5000 nM

## N#Cc1cccc2nc(C(N)=O)c(N)c(-c3cncnc3)c12 [Compound 236]
PKMYT1
  IC50: 1000 to 5000 nM
[1]; Homo sapiens, HCC1806, 4 h
  IC50: ≥ 5000 nM

## Cc1cc(O)c(C)c(-c2c(N)c(C(N)=O)nc3cccnc23)c1 (atropisomer, axis not shown) [Compound 285]
PKMYT1
  IC50: ≥ 5000 nM
[1]; Homo sapiens, HCC1806, 4 h
  IC50: ≥ 5000 nM

## CC1=C(c2c(N)c(C(N)=O)nc3cccnc23)CCCC1=O [Compound 303]
PKMYT1
  IC50: ≥ 5000 nM
[1]; Homo sapiens, HCC1806, 4 h
  IC50: ≥ 5000 nM

## Cc1cncc(C2=c3ncccc3=NC(C(N)=O)C2N)c1C (stereo not shown) [Compound 212]
PKMYT1
  IC50: 50 to 500 nM
[1]; 4 hours
  IC50: 500 to 1000 nM

## Cc1ccc(O)c(C)c1-c1c(N)c(C(N)=O)nc2c(F)cccc12 (single isomer, unassigned) [Compound 38, (M)-3-Amino-8-fluoro-4-(3-hydroxy-2,6-dimethylphenyl) quinoline-2-carboxamide]
PKMYT1
  IC50: 50 to 500 nM
[1]; 4 hours
  IC50: 50 to 500 nM

## Cc1c(O)cccc1-c1c(N)c(C(N)=O)cc2nc(C(F)(F)F)cnc12 [Compound 189]
PKMYT1
  IC50: 50 to 500 nM
[1]; 4 hours
  IC50: 500 to 1000 nM

## COc1cc(-c2c(N)c(C(N)=O)nc3cccnc23)cnc1C [Compound 238]
PKMYT1
  IC50: 1000 to 5000 nM
[1]; Homo sapiens, HCC1806, 4 h
  IC50: ≥ 5000 nM

## Cc1ccc(O)c(C)c1-c1c(N)c(C(N)=O)nc2ccc(C(F)(F)F)cc12 [Compound 34]
PKMYT1
  IC50: 1000 to 5000 nM
[1]; Homo sapiens, HCC1806, 4 h
  IC50: 1000 to 5000 nM

## Cc1ccc(O)c(C)c1-c1c(N)c(C(N)=O)nc2ccccc12 [Compound 22, 3-Amino-4-(3-hydroxy-2,6-dimethylphenyl)quinoline-2-carboxamide]
PKMYT1
  IC50: 50 to 500 nM
[1]; 4 hours
  IC50: 1000 to 5000 nM

## NC(=O)c1cc2nccnc2c(-c2cccc3[nH]ncc23)c1N [Compound 108, 7-Amino-8-(1H-indazol-4-yl)quinoxaline-6-carboxamide]
PKMYT1
  IC50: 50 to 500 nM
[1]; Homo sapiens, HCC1806, 4 h
  IC50: 1000 to 5000 nM

## Cc1c(O)cccc1-c1c(N)c(C(N)=O)nc2cccnc12 (single isomer, unassigned) [Compound 5, (M)-3-amino-4-(3-hydroxy-2-methylphenyl)-1,5-naphthyridine-2-carboxamide]
PKMYT1
  IC50: 500 to 1000 nM
[1]; 4 hours
  IC50: 1000 to 5000 nM

## COc1ncncc1-c1c(N)c(C(N)=O)nc2cccnc12 [Compound 231]
PKMYT1
  IC50: 500 to 1000 nM
[1]; Homo sapiens, HCC1806, 4 h
  IC50: ≥ 5000 nM

## Cc1ccc(O)c(C)c1-c1c(N)c(C(N)=O)cc2nc(C(F)(F)F)cnc12 (single isomer, unassigned) [Compound 112, (P)-7-Amino-8-(3-hydroxy-2,6-dimethylphenyl)-3-(trifluoromethyl)quinoxaline-6-carboxamide]
PKMYT1
  IC50: < 50 nM
[1]; 4 hours
  IC50: 50 to 500 nM

## Cc1c(O)cccc1-c1c(N)c(C(N)=O)cc2ncccc12 (atropisomer, axis not shown; (M)) [Compound 68, (M)-6-Amino-5-(3-hydroxy-2-methylphenyl)quinoline-7-carboxamide]
PKMYT1
  IC50: 50 to 500 nM
[1]; 4 hours
  IC50: 500 to 1000 nM

## Cc1nc(F)ccc1-c1c(N)c(C(N)=O)nc2cccnc12 [Compound 228]
PKMYT1
  IC50: ≥ 5000 nM
[1]; Homo sapiens, HCC1806, 4 h
  IC50: ≥ 5000 nM

## Cc1c(O)cccc1-c1c(N)c(C(N)=O)nc2cccnc12 (single isomer, unassigned) [Compound 4, (P)-3-Amino-4-(3-hydroxy-2-methylphenyl)-1,5-naphthyridine-2-carboxamide]
PKMYT1
  IC50: < 50 nM
[1]; 4 hours
  IC50: < 50 nM

## Cc1c(O)cccc1-c1cc(C(N)=O)cc2nccnc12 [Compound 80, 8-(3-Hydroxy-2-methylphenyl)quinoxaline-6-carboxamide]
PKMYT1
  IC50: 1000 to 5000 nM
[1]; Homo sapiens, HCC1806, 4 h
  IC50: ≥ 5000 nM

## Cc1ccc(O)c(C)c1-c1c(N)c(C(N)=O)nc2nccnc12 (single isomer, unassigned) [Compound 128, (M)-7-Amino-8-(3-hydroxy-2,6-dimethylphenyl)pyrido[2,3-b]pyrazine-6-carboxamide]
PKMYT1
  IC50: 1000 to 5000 nM
[1]; 4 hours
  IC50: ≥ 5000 nM

## Cc1c(O)cccc1-c1c(N)c(C(N)=O)cc2ncccc12 (atropisomer, axis not shown; (P)) [Compound 69, (P)-6-amino-5-(3-hydroxy-2-methylphenyl)quinoline-7-carboxamide]
PKMYT1
  IC50: 1000 to 5000 nM
[1]; 4 hours
  IC50: ≥ 5000 nM

## Cc1c(O)cccc1-c1c(N)c(C(N)=O)nc2cccc(C(N)=O)c12 [Compound 338]
PKMYT1
  IC50: 50 to 500 nM
[1]; Homo sapiens, HCC1806, 4 h
  IC50: 1000 to 5000 nM

## Cc1ccc2c(-c3cccc(O)c3C)c(N)c(C(N)=O)nc2c1 (single isomer, unassigned) [Compound 50, (P)-3-amino-4-(3-hydroxy-2-methylphenyl)-7-methylquinoline-2-carboxamide]
PKMYT1
  IC50: ≥ 5000 nM
[1]; 4 hours
  IC50: ≥ 5000 nM

## Cc1c(O)cccc1-c1c(N)c(C(N)=O)nc2cccnc12 [Compound 2, 3-Amino-4-(3-hydroxy-2-methylphenyl)-1,5-naphthyridine-2-carboxamide]
PKMYT1
  IC50: < 50 nM
[1]; Homo sapiens, HCC1806, 4 h
  IC50: 50 to 500 nM

## Cc1ccc2[nH]ncc2c1-c1c(N)c(C(N)=O)cc2nccnc12 (single isomer, unassigned) [Compound 78, (P)-7-Amino-8-(5-methyl-1H-indazol-4-yl)quinoxaline-6-carboxamide]
PKMYT1
  IC50: 50 to 500 nM
[1]; 4 hours
  IC50: 1000 to 5000 nM

## Cc1ccc(O)c(C)c1-c1c(N)c(C(N)=O)nc2c(C)cccc12 (single isomer, unassigned) [Compound 32]
PKMYT1
  IC50: ≥ 5000 nM
[1]; Homo sapiens, HCC1806, 4 h
  IC50: ≥ 5000 nM

## Cc1c(O)cc(Cl)cc1-c1c(N)c(C(N)=O)nc2cccnc12 (atropisomer, axis not shown) [Compound 289]
PKMYT1
  IC50: 1000 to 5000 nM
[1]; 4 hours
  IC50: ≥ 5000 nM

## Cc1c(-c2c3c(cc4nccnc24)C(=O)NC(C)(C)N3)ccc(F)c1O (atropisomer, axis not shown) [Compound 313]
PKMYT1
  IC50: ≥ 5000 nM
[1]; 4 hours
  IC50: ≥ 5000 nM

## Cc1ccc(O)c(C)c1-c1c(N)c(C#N)cc2nccnc12 [Compound 298]
PKMYT1
  IC50: 1000 to 5000 nM
[1]; Homo sapiens, HCC1806, 4 h
  IC50: ≥ 5000 nM

## Cc1c(-c2c(N)c(C(N)=O)cc3nccnc23)ccc2oc(N)nc12 [Compound 197]
PKMYT1
  IC50: ≥ 5000 nM
[1]; Homo sapiens, HCC1806, 4 h
  IC50: ≥ 5000 nM
